In PubChem BioAssay (NCI):
“And” between values parts separate entries of the source, which are not always exact repeats. Identical values can stand only once.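 Exposure lasted 48 hours, with cells grown in 96-well plates and compounds tested at five concentrations. GI50 marks 50% less growth. TGI denotes the concentration required for complete inhibition of growth.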

Columns and labels:
Assay in all cases: DTP human tumour cell line panel, 48 h
MDA-N = tested on: MDA-N
BT-549 breast = tested on: BT-549 breast
SK-OV-3 ovarian = tested on: SK-OV-3 ovarian
ACHN renal = tested on: ACHN renal
KM12 colon = tested on: KM12 colon
MALME-3M melanoma = tested on: MALME-3M melanoma
SF-295 CNS = tested on: SF-295 CNS
LOX IMVI melanoma = tested on: LOX IMVI melanoma
OVCAR-3 ovarian = tested on: OVCAR-3 ovarian
HL-60(TB) leukemia = tested on: HL-60(TB) leukemia

| SMILES | TGI (MDA-N) | TGI (BT-549 breast) | TGI (SK-OV-3 ovarian) | TGI (ACHN renal) | TGI (KM12 colon) | TGI (MALME-3M melanoma) | TGI (SF-295 CNS) | TGI (LOX IMVI melanoma) | TGI (OVCAR-3 ovarian) | TGI (HL-60(TB) leukemia) | GI50 (OVCAR-3 ovarian) |
| --- | --- | --- | --- | --- | --- | --- | --- | --- | --- | --- | --- |
| Cc1ccc(NC(=S)NNC(=O)c2cc(-c3ccccc3)nc3ccccc23)cc1C | 40 µM | 44.2 µM | 32.9 µM | 67.6 µM | 80 µM | 43.6 µM | 29.6 µM |  |  |  |  |
| CO/N=C1/C(n2[nH]c(=O)n(-c3ccccc3)c2=O)C2C=CC1n1c(=O)n(-c3ccccc3)c(=O)n12 (stereo unspecified) | > 100 µM | > 100 µM | > 100 µM |  | > 100 µM | > 100 µM |  | > 100 µM | > 100 µM | > 100 µM |  |
| O=[N+]([O-])c1cccc2nc3ccccc3c(NCCNCCO)c12 |  | 0.0273 µM and 0.0259 µM | 0.293 µM and 0.377 µM | 0.0422 µM and 0.0311 µM | 0.0277 µM and 0.0202 µM | 0.0216 µM and 0.0317 µM | 0.0367 µM and 0.133 µM | 0.0184 µM and 0.112 µM | 0.0268 µM and 0.0556 µM | 0.109 µM | 0.0114 µM |
| COc1ccc2c(-c3ccc(O)cc3)c(Oc3ccccc3)c(=O)oc2c1 | > 100 µM | > 100 µM | > 100 µM | > 85.9 µM | > 100 µM | > 86.3 µM | > 100 µM | > 100 µM | > 100 µM | > 100 µM |  |
| Cc1ccc(N2C(=O)CC(=O)N(NC(=O)C(C)Oc3ccccc3C)C2=S)cc1 (stereo unspecified) | > 100 µM | > 100 µM | > 100 µM | > 100 µM | > 100 µM | > 100 µM | > 100 µM | > 100 µM | > 100 µM | > 100 µM |  |
| COC(=O)[C@H]1ON2O[C@@H](O[C@H]3CCCC[C@@H]3C(C)(C)c3ccccc3)C[C@@H]3CC[C@H]1[C@@]32C | > 100 µM |  | > 100 µM | > 100 µM | > 100 µM |  | > 100 µM | > 100 µM | > 100 µM | > 100 µM |  |
| COc1ccc(S(=O)Cc2cc(OC)ccc2OC)cc1 (stereo unspecified) | > 100 µM | > 100 µM | > 100 µM | > 100 µM | > 100 µM | > 100 µM | > 100 µM | > 100 µM | > 100 µM |  |  |
| CCCCCC(/C=N/NC(N)=S)C(O)(C(F)(F)F)C(F)(F)F (stereo unspecified) | > 10 µM | > 10 µM | > 10 µM | > 10 µM | > 10 µM | > 10 µM | > 10 µM | > 10 µM | > 10 µM |  |  |
| C(/C=N/NC1=NCCN1)=N\NC1=NCCN1 | > 100 µM | > 100 µM | > 100 µM | > 100 µM | > 100 µM | > 100 µM | > 100 µM | > 100 µM | > 100 µM | 34.2 µM |  |
| c1ccc(-c2cc(-c3cc(-c4ccccc4)n[nH]3)[nH]n2)cc1 | > 100 µM | > 100 µM | > 100 µM | > 100 µM | > 100 µM | > 100 µM | > 100 µM |  | > 100 µM |  |  |
| COc1ccc(/C=N/n2c(C)n[nH]c2=O)cc1 | > 100 µM | > 100 µM | > 100 µM | > 100 µM | > 100 µM | > 100 µM | > 100 µM |  | > 100 µM |  |  |
| O=C(c1ccc(Cl)cc1)N(C(=S)N1CCN(c2ccccc2)CC1)c1ccccc1 |  |  | > 100 µM | > 100 µM | > 100 µM | > 100 µM | > 100 µM | > 100 µM | > 100 µM | > 100 µM |  |
| COc1cc(/C=C/C(=O)O)ccc1O | > 100 µM |  |  | > 100 µM | > 100 µM | > 100 µM | > 100 µM | > 100 µM | > 100 µM | > 100 µM |  |
| CCOC(=O)c1ccc(Nc2nc3ccc(C(F)(F)F)cc3nc2-c2ccccc2)cc1 |  |  |  | > 100 µM | > 100 µM | > 100 µM | > 100 µM | > 100 µM | > 100 µM | > 100 µM |  |
| N#Cc1nsnc1-c1nc(-c2nsnc2C#N)nc(-c2nsnc2C#N)n1 | > 100 µM | > 100 µM |  | > 100 µM | > 100 µM | > 100 µM | > 100 µM | > 100 µM | > 100 µM | > 100 µM |  |
| C=CCOc1ccc(C2c3c([nH][nH]c3=O)CC(C)(O)C2C(=O)OC)cc1OC (stereo unspecified) | > 100 µM | > 100 µM |  | > 100 µM | > 100 µM | > 100 µM | > 100 µM | > 100 µM | > 100 µM | > 100 µM |  |
| COc1ccc(NC(C)=O)c(C(=O)CCNC(C)=O)c1 | > 100 µM | > 100 µM | > 100 µM | > 100 µM | > 100 µM |  | > 100 µM | > 100 µM | > 100 µM | > 100 µM |  |
| CN(C)CCCNC(=O)CNC(=O)c1cc(NC(=O)c2cc(NC(=O)c3cc(NC(=O)CCNC(=O)c4cc(NC(=O)c5cc(NC(=O)c6nccn6C)cn5C)cn4C)cn3C)cn2C)cn1C | > 100 µM |  | > 100 µM | > 100 µM | > 100 µM | > 100 µM | > 100 µM | > 100 µM | > 100 µM | 94.1 µM |  |
| Cc1ccc(S(=O)(=O)OCC23CCC(C4CC42)C2CC23)cc1 (stereo unspecified) |  |  | > 100 µM | > 100 µM |  | > 100 µM | > 100 µM | > 100 µM | > 100 µM | 37.8 µM |  |
| O=C(O)c1cc2c(cc1S(=O)(=O)O)C1C(C3C2C2(Cl)C(Cl)=C(Cl)C3(Cl)C2(Cl)Cl)C2(Cl)C(Cl)=C(Cl)C1(Cl)C2(Cl)Cl (stereo unspecified) | > 100 µM | > 100 µM | > 100 µM | > 100 µM | > 100 µM | > 100 µM | 60.2 µM |  | > 100 µM | 79.9 µM |  |
| CCOC(=O)NNC1(SC)NC(=O)c2c(cc(Cl)oc2=O)O1 (stereo unspecified) | 22.2 µM | 12.2 µM | 26.8 µM | 4.79 µM | 23.6 µM |  | 25.9 µM | 6.18 µM | 10.9 µM | 3.6 µM |  |
| C/C=C/OC1C(C2COC(C)(C)O2)OC2OC(C)(C)OC21 (stereo unspecified) | > 100 µM |  | > 100 µM | > 100 µM |  | > 100 µM | > 100 µM | > 100 µM | > 100 µM | > 100 µM |  |
| C=C(Br)C(Cl)(CBr)CCC(Br)C(C)(C)Cl (stereo unspecified) | > 10 µM | > 10 µM | > 10 µM | > 10 µM | > 10 µM |  | > 10 µM |  | > 10 µM | > 10 µM |  |
| OCC1CCCCN1Cc1nc2ccc(Cl)cc2[nH]1 (stereo unspecified) | > 100 µM | > 100 µM | > 100 µM | > 100 µM | > 100 µM | > 100 µM | > 100 µM |  | > 100 µM | > 100 µM |  |
